The source made the active and inactive calls.
Experiments:
Assay type in all cases: functional
[1] = target: Non-receptor tyrosine-protein kinase TYK2 (Homo sapiens, UniProt P29597)
[2] = target: Vascular endothelial growth factor receptor 2 (Homo sapiens, UniProt P35968)
[3] = target: Serine/threonine-protein kinase Chk2 (Homo sapiens, UniProt O96017);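 also: CHEK2 entry within a kinome-wide screening panel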
Aurora kinase B = Aurora kinase B (Homo sapiens, UniProt Q96GD4)
[4] = target: Fibroblast growth factor receptor 3 (Homo sapiens, UniProt P22607)
[5] = target: T1, Tyrosine-protein kinase ITK/TSK (Homo sapiens, UniProt Q08881);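 also: affinity for ITK measured as one member of a broad kinase panel profiling binding across the kinome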
T1 sequence (Q08881 whole entry): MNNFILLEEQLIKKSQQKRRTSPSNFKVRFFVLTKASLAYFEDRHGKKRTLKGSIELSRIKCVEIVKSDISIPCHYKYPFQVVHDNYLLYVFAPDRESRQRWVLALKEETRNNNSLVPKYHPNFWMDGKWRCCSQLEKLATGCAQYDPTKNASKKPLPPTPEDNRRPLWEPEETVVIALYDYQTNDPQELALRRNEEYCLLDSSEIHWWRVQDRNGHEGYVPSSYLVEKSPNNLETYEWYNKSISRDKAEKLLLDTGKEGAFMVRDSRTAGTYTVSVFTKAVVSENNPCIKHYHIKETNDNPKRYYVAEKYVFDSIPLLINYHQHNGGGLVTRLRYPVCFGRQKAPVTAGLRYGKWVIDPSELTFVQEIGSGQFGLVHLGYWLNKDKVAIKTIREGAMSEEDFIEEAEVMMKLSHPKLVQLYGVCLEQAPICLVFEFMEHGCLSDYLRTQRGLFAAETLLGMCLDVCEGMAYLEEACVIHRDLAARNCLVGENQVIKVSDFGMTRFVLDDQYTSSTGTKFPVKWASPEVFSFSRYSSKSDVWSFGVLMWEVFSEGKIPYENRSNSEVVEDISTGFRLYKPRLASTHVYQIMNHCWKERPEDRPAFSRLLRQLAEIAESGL

Ephrin type-A receptor 2 = Ephrin type-A receptor 2 (Homo sapiens, UniProt P29317);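 also: EPHA2 tested as one member of a kinome-wide kinase panel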
[6] = target: Mitogen-activated protein kinase 12 (Homo sapiens, UniProt P53778);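 also: measured as one member of a kinome-wide kinase profiling panel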
[7] = target: MAP/microtubule affinity-regulating kinase 3 (Homo sapiens, UniProt P27448);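 also: MARK3 affinity measured as one member of a kinome panel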
[8] = target: Tyrosine-protein kinase Lyn (Homo sapiens, UniProt P07948);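 also: lyn as one member of a kinase panel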
[9] = target: MAP kinase-activated protein kinase 2 (Homo sapiens, UniProt P49137);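 also: measured as one member of a kinome-wide kinase panel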
MAP kinase-activated protein kinase 2, sequence (P49137 whole entry): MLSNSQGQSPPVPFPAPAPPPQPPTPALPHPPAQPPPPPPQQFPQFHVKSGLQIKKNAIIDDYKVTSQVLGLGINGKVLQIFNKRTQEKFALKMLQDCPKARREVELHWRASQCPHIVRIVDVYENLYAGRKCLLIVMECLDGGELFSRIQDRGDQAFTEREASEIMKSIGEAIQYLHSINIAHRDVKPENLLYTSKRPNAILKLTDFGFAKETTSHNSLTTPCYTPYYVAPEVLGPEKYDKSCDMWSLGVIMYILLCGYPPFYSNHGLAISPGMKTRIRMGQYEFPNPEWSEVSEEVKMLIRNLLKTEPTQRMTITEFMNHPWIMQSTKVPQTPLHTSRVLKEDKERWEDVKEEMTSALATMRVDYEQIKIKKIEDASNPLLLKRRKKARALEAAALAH

[10] = target: MAP kinase-activated protein kinase 3 (Homo sapiens, UniProt Q16644);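 also: value comes from a kinome-wide profiling panel in which MAPKAPK3 is one of the panel members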
MAP kinase-activated protein kinase 3, sequence (Q16644 whole entry): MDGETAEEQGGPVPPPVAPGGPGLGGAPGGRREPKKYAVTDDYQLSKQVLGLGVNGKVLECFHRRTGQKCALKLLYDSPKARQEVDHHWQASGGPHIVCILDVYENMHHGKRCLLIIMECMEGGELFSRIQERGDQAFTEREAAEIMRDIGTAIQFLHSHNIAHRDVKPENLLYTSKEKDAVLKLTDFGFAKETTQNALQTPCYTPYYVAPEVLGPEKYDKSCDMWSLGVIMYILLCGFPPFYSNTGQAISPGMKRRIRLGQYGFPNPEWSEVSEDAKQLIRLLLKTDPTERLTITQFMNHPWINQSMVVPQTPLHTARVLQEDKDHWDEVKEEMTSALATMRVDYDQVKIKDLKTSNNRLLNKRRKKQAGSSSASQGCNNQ

[11] = target: Proto-oncogene tyrosine-protein kinase Src (Homo sapiens, UniProt P12931);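 also: SRC entry within a kinome-wide kinase profiling panel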
Proto-oncogene tyrosine-protein kinase Src, sequence (P12931 2-536 limits assumed): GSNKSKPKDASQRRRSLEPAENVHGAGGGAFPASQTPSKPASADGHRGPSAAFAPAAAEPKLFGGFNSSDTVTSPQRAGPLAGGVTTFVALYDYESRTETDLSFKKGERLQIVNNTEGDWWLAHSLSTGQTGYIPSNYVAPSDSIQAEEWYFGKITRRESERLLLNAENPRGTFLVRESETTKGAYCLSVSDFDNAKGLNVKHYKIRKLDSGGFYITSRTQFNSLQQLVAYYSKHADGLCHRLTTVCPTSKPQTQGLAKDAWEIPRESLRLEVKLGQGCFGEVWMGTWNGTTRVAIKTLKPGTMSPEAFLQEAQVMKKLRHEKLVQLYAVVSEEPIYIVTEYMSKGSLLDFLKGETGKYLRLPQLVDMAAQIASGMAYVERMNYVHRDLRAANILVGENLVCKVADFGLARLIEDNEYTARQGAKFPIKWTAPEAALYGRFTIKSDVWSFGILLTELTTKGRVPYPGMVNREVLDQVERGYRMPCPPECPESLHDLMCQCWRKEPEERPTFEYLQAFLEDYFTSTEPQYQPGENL

[12] = target: Death-associated protein kinase 3 (Homo sapiens, UniProt O43293);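 also: measured as one member of a kinome-wide profiling panel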
[13] = target: Serine/threonine-protein kinase D2 (Homo sapiens, UniProt Q9BZL6);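 also: measured against PRKD2 as one member of a kinome-wide kinase profiling panel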
[14] = target: Cyclin-dependent kinase 1 (Homo sapiens, UniProt P06493);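 also: Kinome-wide panel profiling, with the target listed as panel member CDC2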
Cyclin-dependent kinase 1, sequence (P06493 whole entry): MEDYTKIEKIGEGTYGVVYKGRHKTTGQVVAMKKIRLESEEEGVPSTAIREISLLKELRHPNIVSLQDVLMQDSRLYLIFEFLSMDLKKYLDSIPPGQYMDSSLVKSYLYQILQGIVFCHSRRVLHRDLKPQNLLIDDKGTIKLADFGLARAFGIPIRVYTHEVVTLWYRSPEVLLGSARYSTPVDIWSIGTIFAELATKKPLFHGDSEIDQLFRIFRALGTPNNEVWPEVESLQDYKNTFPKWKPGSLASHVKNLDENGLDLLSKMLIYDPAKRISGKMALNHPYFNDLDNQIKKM

[15] = target: Casein kinase II subunit alpha (Homo sapiens, UniProt P68400)
[16] = target: Tyrosine-protein kinase ABL1 (Homo sapiens, UniProt P00519)
Tyrosine-protein kinase ABL1, sequence (P00519 whole entry): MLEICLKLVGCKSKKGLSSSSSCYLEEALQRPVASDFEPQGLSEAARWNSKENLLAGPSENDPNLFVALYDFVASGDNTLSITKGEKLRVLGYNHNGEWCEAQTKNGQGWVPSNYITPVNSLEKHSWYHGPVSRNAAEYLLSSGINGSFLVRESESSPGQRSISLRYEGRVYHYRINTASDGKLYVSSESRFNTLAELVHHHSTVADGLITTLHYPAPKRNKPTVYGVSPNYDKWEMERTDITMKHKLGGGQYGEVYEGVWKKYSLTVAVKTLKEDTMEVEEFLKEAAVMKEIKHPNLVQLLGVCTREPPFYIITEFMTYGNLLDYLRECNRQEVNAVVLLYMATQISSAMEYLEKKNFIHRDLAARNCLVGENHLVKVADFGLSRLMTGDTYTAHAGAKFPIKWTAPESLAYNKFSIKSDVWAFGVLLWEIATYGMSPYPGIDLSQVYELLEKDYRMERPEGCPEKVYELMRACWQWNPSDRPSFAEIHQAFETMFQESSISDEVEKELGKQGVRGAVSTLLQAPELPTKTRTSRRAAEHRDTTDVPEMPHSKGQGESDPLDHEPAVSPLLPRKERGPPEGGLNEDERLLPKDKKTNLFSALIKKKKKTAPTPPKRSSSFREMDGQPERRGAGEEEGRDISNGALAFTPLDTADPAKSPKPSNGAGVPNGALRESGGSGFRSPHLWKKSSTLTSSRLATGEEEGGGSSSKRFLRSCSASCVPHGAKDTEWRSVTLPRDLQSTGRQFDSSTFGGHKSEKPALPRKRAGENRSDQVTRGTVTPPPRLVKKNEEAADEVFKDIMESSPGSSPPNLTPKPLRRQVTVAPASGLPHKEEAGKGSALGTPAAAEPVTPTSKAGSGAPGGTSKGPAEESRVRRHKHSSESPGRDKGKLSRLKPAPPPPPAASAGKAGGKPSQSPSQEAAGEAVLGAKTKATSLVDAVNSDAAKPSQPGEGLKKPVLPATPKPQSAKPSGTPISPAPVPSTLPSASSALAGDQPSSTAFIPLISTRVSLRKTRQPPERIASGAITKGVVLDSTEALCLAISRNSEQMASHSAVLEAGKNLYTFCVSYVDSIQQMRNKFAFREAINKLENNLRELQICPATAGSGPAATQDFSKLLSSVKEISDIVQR

[17] = target: Serine/threonine-protein kinase pim-2 (Homo sapiens, UniProt Q9P1W9);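 also: value comes from a broad kinase panel profiling study in which PIM2 was one of the panel members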
[18] = target: Macrophage colony-stimulating factor 1 receptor (Homo sapiens, UniProt P07333);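 also: value comes from the Navigating the Kinome screening panel, CSF1R member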
[19] = target: Serine/threonine-protein kinase Chk1 (Homo sapiens, UniProt O14757);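 also: measured as one member of a kinome-wide kinase profiling panel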
[20] = target: Mitogen-activated protein kinase 1 (Homo sapiens, UniProt P28482)
Mitogen-activated protein kinase 1, sequence (P28482 whole entry): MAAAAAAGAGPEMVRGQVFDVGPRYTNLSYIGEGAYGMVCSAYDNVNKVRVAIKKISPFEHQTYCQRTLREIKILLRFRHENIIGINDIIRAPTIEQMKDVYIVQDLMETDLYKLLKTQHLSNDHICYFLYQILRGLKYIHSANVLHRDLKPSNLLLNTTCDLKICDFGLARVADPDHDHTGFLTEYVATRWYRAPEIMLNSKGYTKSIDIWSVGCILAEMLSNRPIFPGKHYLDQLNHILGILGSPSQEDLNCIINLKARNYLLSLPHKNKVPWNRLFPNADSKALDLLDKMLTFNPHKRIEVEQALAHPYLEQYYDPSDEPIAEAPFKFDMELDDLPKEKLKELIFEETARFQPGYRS

[21] = target: Mitogen-activated protein kinase 9 (Homo sapiens, UniProt P45984);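 also: value from a kinome panel profiling assay, MAPK9 panel entry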
Mitogen-activated protein kinase 9, sequence (P45984 whole entry): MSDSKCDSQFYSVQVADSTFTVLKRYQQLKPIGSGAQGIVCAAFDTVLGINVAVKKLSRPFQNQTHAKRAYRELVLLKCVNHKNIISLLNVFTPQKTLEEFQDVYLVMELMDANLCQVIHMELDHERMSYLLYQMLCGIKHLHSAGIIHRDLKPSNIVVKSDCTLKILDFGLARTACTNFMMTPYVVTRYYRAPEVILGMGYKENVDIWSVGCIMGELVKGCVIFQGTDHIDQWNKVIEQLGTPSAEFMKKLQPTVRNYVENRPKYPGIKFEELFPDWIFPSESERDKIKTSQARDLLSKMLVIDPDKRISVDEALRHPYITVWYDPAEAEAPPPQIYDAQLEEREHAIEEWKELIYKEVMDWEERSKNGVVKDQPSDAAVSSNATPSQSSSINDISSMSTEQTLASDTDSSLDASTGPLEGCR

[22] = target: Serine/threonine-protein kinase PAK 1 (Homo sapiens, UniProt Q13153)
[23] = target: Insulin-like growth factor 1 receptor (Homo sapiens, UniProt P08069); test: Navigating the Kinome. Panel member name: IGF1R
Insulin receptor = Insulin receptor (Homo sapiens, UniProt P06213);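 also: insulin receptor kinase tested as one member of a kinome-wide kinase panel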
[24] = target: Serine/threonine-protein kinase Nek2 (Homo sapiens, UniProt P51955)
Serine/threonine-protein kinase Nek2, sequence (P51955 whole entry): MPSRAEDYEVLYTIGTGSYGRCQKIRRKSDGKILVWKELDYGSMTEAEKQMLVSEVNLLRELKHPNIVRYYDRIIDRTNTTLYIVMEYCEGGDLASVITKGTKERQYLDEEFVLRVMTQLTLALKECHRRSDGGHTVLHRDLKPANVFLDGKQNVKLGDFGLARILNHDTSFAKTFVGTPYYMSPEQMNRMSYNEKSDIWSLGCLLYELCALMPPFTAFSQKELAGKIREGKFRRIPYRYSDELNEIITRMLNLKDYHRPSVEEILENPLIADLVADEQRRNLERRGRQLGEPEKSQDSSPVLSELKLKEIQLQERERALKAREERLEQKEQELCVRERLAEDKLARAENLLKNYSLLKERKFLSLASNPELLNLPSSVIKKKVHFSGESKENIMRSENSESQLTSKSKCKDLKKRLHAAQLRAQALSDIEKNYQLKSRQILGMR

[25] = target: T2, Interleukin-1 receptor-associated kinase 4 (Homo sapiens, UniProt Q9NWZ3)
T2 sequence (Q9NWZ3 whole entry): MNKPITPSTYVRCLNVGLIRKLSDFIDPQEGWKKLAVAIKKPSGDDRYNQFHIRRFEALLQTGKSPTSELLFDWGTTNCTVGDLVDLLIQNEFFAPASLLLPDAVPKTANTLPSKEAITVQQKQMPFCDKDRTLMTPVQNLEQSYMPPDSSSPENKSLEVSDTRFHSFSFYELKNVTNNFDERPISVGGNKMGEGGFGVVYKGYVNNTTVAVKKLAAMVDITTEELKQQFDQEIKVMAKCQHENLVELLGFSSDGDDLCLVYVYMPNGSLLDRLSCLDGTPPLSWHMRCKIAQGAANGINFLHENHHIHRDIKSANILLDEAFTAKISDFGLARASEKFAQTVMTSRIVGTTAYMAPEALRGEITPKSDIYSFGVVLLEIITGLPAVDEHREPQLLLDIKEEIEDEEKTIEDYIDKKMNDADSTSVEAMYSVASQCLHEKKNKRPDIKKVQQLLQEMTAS

[26] = target: Serine/threonine-protein kinase PLK4 (Homo sapiens, UniProt O00444);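 also: PLK4 measured as one member of a kinome-wide kinase profiling panel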
[27] = target: Calcium/calmodulin-dependent protein kinase type 1 (Homo sapiens, UniProt Q14012)
[28] = target: Mitogen-activated protein kinase 8 (Homo sapiens, UniProt P45983);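 also: value comes from one member of a kinome-wide kinase profiling panel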
Mitogen-activated protein kinase 8, sequence (P45983 whole entry): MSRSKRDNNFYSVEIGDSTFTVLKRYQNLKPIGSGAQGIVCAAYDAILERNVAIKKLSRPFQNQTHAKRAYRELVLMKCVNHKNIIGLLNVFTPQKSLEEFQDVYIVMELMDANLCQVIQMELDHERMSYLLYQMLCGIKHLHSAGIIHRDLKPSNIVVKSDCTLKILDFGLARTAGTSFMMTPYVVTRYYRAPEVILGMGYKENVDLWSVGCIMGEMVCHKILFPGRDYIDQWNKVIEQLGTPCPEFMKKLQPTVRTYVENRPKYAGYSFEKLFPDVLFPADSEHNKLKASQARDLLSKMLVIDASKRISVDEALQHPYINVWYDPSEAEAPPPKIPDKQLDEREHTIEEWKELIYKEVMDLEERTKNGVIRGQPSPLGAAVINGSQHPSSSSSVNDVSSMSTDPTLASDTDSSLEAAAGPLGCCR

[29] = target: Receptor tyrosine-protein kinase erbB-2 (Homo sapiens, UniProt P04626); test: Navigating the Kinome. Panel member name: ERBB2

Serine/threonine-protein kinase Chk2, sequence (O96017 whole entry): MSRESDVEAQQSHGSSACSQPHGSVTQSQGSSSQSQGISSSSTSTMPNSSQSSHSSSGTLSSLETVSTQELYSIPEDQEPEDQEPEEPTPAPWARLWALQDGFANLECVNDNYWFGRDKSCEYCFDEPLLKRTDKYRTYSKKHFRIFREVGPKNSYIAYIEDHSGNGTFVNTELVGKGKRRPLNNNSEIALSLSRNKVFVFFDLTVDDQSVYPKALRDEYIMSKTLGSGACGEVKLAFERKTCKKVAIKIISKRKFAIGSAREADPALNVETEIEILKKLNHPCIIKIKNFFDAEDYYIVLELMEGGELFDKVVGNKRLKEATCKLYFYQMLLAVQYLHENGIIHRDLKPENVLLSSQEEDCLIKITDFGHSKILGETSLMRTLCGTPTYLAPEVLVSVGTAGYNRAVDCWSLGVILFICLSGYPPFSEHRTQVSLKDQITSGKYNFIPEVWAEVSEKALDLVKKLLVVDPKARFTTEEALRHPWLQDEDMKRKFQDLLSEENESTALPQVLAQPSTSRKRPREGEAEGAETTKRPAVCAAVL

Row | Ki [1] | Ki [2] | Ki [3] | Ki (Aurora kinase B) | Ki [4] | Ki [5] | Ki (Ephrin type-A receptor 2) | Ki [6] | Ki [7] | Ki [8] | Ki [9] | Ki [10] | Ki [11] | Ki [13] | Ki [14] | Ki [15] | Ki [16] | Ki [17] | Ki [18] | SMILES | Ki [12] | further results
1 | > 2 µM (inactive) | > 7.94 µM (inactive) | 0.0794 µM (active) | 3.16 µM (active) | > 2 µM (inactive) | > 1.58 µM (inactive) | > 3.16 µM (inactive) | 1 µM (active) | 0.0631 µM (active) | > 1.58 µM (inactive) | 1.58 µM (active) | > 10 µM (inactive) | > 2 µM (inactive) | 0.251 µM (active) | 0.0316 µM (active) | 794 nM (active) | > 631 nM (inactive) | 1.26 nM (active) | > 2.51 µM (inactive) | Cc1n[nH]c2cnc(-c3cncc(OCC(N)Cc4cccc(C(F)(F)F)c4)c3)cc12 (centres undefined) | 3.98 nM (active) | Ki [19]: 3.98 µM (active); Ki [20]: 0.631 µM (active); Ki [21]: > 3.98 µM (inactive); Ki [22]: 2 µM (active); Ki [23]: > 2 µM (inactive); Ki (Insulin receptor): > 5.01 µM (inactive); Ki [24]: > 10 µM (inactive); Ki [25]: 398 nM (active); Ki [26]: 2.51 µM (active); Ki [27]: 0.501 µM (active); Ki [28]: > 3.16 µM (inactive); Ki [29]: > 1.58 µM (inactive)
2 | > 2 µM (inactive) | > 7.94 µM (inactive) | > 10 µM (inactive) | 6.31 µM (active) | > 2 µM (inactive) | 0.398 µM (active) | > 3.16 µM (inactive) | > 6.31 µM (inactive) | > 6.31 µM (inactive) | 1.58 µM (active) | > 7.94 µM (inactive) | > 10 µM (inactive) | 1.58 µM (active) | > 10 µM (inactive) | > 7.94 µM (inactive) | 63.1 nM (active) | > 631 nM (inactive) | > 1580 nM (inactive) | > 2.51 µM (inactive) | Cc1c(C=O)c(O)n2c(nc3ccccc32)c1C#N | 1000 nM (active) | Ki [19]: > 7.94 µM (inactive); Ki [20]: > 7.94 µM (inactive); Ki [21]: > 3.98 µM (inactive); Ki [22]: > 10 µM (inactive); Ki [23]: > 1 µM (inactive); Ki (Insulin receptor): > 5.01 µM (inactive); Ki [24]: > 10 µM (inactive); Ki [25]: 3980 nM (active); Ki [26]: 0.794 µM (active); Ki [27]: > 7.94 µM (inactive); Ki [28]: > 3.16 µM (inactive); Ki [29]: > 1.58 µM (inactive)
